Results as given in US11591299B1, “Prodrug compound of levosimendan, preparation method and use thereof” (Beijing Chenguang Tongchuang Pharmaceutical Research …, priority 2022, dated 2023).

How the values were obtained:
[1] = general statement, no test described; cited from earlier work
[2] = Solubility determination in water (Chinese Pharmacopoeia 2020 solubility test method); type: physicochemical; details: 25° C.±2° C., dissolution observed within 30 minutes
Experimental: The determination is based on the solubility test method in General Example 15 of Part IV in “Chinese Pharmacopoeia (2020 Edition)”: the test product was ground into fine powders, and water at about 25° C. is added in a certain water bath at 25° C.±2° C., and shaken vigorously for 30 seconds every 5 minutes, to observe the dissolution within 30 minutes. If there are no visible solute particles, it is regarded as complete dissolution.

[3] = Pharmacokinetic study: metabolism of prodrug and conversion to levosimendan in plasma after in vivo administration; details: for ranking of metabolic conversion rates among the 13 prodrug molecules: in plasma within 10 minutes
Experimental: FIGS. 4-6 are the change profile of the content of compound TCX1001-031 itself in plasma after administration in the pharmacokinetic study, the change profile of the content of released levosimendan, and the pharmacokinetic metabolic conversion rate, respectively.
The conversion rates of these compounds to levosimendan in plasma within 10 minutes are approximately 30-45%.

Row | SMILES | solubility in water [2] | also measured
1 | C[C@@H]1CC(=O)NN=C1c1ccc(NN=C(C#N)C#N)cc1 [Levosimendan, (R)-[[4-(1,4,5,6-tetrahydro-4-methyl-6-oxo-pyridazin-3-yl)phenyl]-hydrazono]-malononitrile] |  | solubility of levosimendan in most organic solvents [1]: insoluble or extremely poorly soluble; solubility of levosimendan in water [1]: insoluble
2 | C[C@@H]1CC(=O)N(COC(=O)c2cccnc2)N=C1c1ccc(NN=C(C#N)C#N)cc1 [TCX-1001-029, (R)-(3-((4-(2-(dicyanomethylene)hydrazino)phenyl)-4-methyl-6-oxo-5,6-dihydropyridazin-1(4H)-yl)methyl nicotinate] | [drawing 7] Rp = pyridin-3-yl Chemical name: (R)-(3-((4-(2- (dicyanomethylene)hydrazino)phenyl)- 4-methyl-6-oxo-5,6-dihydropyridazin- 1(4H)-yl)methyl nicotinate (TCX-1001-029) This product is extremely slightly soluble in water | ranking of metabolic conversion rates among the 13 prodrug molecules [3]: highest
3 | C[C@@H]1CC(=O)N(COC(=O)CN(C)C)N=C1c1ccc(NN=C(C#N)C#N)cc1 [TCX-1001-030] | [drawing 6] Rp = N,N-dimethylaminomethyl Chemical name: (R)-(3-((4-(2- (dicyanomethylene)hydrazino)phenyl)- 4-methyl-6-oxo-5,6-dihydropyridazin- 1(4H)-yl)m ethyl N,N- dimethylglycinate (TCX-1001-030) This product is slightly soluble in water | ranking of metabolic conversion rates among the 13 prodrug molecules [3]: highest
4 | C[C@@H]1CC(=O)N(COC(=O)c2ccc(CN3CCOCC3)cc2)N=C1c1ccc(NN=C(C#N)C#N)cc1 [TCX-1001-031] | [drawing 4] Rp = 4-(morpholin-1-ylmethyl)phenyl Chemical name: (R)-(3-((4-(2- (dicyanomethylene)hydrazino)phenyl)- 4-methyl-6-oxo-5,6-dihydropyridazin- 1(4H)-yl)methyl 4-(morpholin-1-ylmethyl)benzoate (TCX-1001-031) This product is sparingly soluble in water | ranking of metabolic conversion rates among the 13 prodrug molecules [3]: highest; time to complete metabolism of the prodrug (content drops to 0) ([3]; plasma, after in vivo administration): ≤ 1 min
5 | C[C@@H]1CC(=O)N(COC(=O)CN)N=C1c1ccc(NN=C(C#N)C#N)cc1 [TCX-1001-032, (R)-(3-((4-(2-(dicyanomethylene)hydrazino)phenyl)-4-methyl-6-oxo-5,6-dihydropyridazin-1(4H)-yl)methyl glycinate] | [drawing 9] Rp = aminomethyl Chemical name: (R)-(3-((4-(2- (dicyanomethylene)hydrazino)phenyl)- 4-methyl-6-oxo-5,6-dihydropyridazin- 1(4H)-yl)m ethyl glycinate (TCX-1001-032) This product is slightly soluble in water | 
6 | C[C@@H]1CC(=O)N(COC(=O)c2ccc(CN3CCN(C)CC3)cc2)N=C1c1ccc(NN=C(C#N)C#N)cc1 [TCX-1001-033] | [drawing 5] Rp = 4-(4-methylpiperazin-1-ylmethyl)phenyl Chemical name: (R)-(3-((4-(2- (dicyanomethylene)hydrazino)phenyl)- 4-methyl-6-oxo-5,6-dihydropyridazin- 1(4H)-yl)methyl 4-((4- methylpiperazin-1-yl)methyl)benzoate (TCX-1001-033) This product is sparingly soluble in water | ranking of metabolic conversion rates among the 13 prodrug molecules [3]: highest
7 | C[C@@H]1CC(=O)N(COC(=O)CCC(=O)O)N=C1c1ccc(NN=C(C#N)C#N)cc1 [TCX-1001-034] | [drawing 13] Rp = carboxyl ethyl Chemical name: (R)-(3-((4-(2- (dicyanomethylene)hydrazino)phenyl)- 4-methyl-6-oxo-5,6-dihydropyridazin- 1(4H)-yl)methyl 3-carboxylpropionate (TCX-1001-034) This product is slightly soluble in water | 
8 | C[C@@H]1CC(=O)N(COC(=O)OCC(=O)O)N=C1c1ccc(NN=C(C#N)C#N)cc1 [TCX-1001-035, (R)-(3-((4-(2-(dicyanomethylene)hydrazino)phenyl)-4-methyl-6-oxo-5,6-dihydropyridazin-1(4H)-yl)methyl carboxylmethyloxyformate] | [drawing 14] Rp = carboxylmethoxy Chemical name: (R)-(3-((4-(2- (dicyanomethylene)hydrazino)phenyl)- 4-methyl-6-oxo-5,6-dihydropyridazin- 1(4H)-yl)methyl carboxylmethyloxyformate (TCX-1001-035) This product is slightly soluble in water | 
9 | C[C@@H]1CC(=O)N(COC(=O)CC(=O)NCc2ccncc2)N=C1c1ccc(NN=C(C#N)C#N)cc1 [TCX-1001-036] | [drawing 10] Rp = pyridin-4-ylmethylaminoformylmethyl Chemical name: (R)-(3-((4-(2- (dicyanomethylene)hydrazino)phenyl)- 4-methyl-6-oxo-5,6-dihydropyridazin- 1(4H)-yl)methyl 3-oxo-3-((pyridin-4-ylmethyl)amino)propionate (TCX-1001-036) This product is extremely slightly soluble in water | 
10 | C[C@@H]1CC(=O)N(COC(=O)N2CCC(N3CCCCC3)CC2)N=C1c1ccc(NN=C(C#N)C#N)cc1 [TCX-1001-037] | [drawing 8] Rp = 4-(piperidin-1-yl)-piperidin-1-yl Chemical name: (R)-(3-((4-(2- (dicyanomethylene)hydrazino)phenyl)- 4-methyl-6-oxo-5,6-dihydropyridazin- 1(4H)-yl)methyl 4-(piperidin-1-yl)piperidin-1-ylformate (TCX-1001-037) This product is sparingly soluble in water | 
11 | C[C@@H]1CC(=O)N(COC(=O)COS(=O)(=O)O)N=C1c1ccc(NN=C(C#N)C#N)cc1 [TCX-1001-038, (R)-(3-((4-(2-(dicyanomethylene)hydrazino)phenyl)-4-methyl-6-oxo-5,6-dihydropyridazin-1(4H)-yl)methyl sulfonyloxyacetate] | [drawing 16] Rp = sulfonyloxymethyl Chemical name: (R)-(3-((4-(2- (dicyanomethylene)hydrazino)phenyl)- 4-methyl-6-oxo-5,6-dihydropyridazin- 1(4H)-yl)methyl sulfonyloxyacetate (TCX-1001-038) This product is extremely soluble in water | 
12 | C[C@@H]1CC(=O)N(COC(=O)CN2CCCC2)N=C1c1ccc(NN=C(C#N)C#N)cc1 [TCX-1001-039] | [drawing 11] Rp = pyrrolidin-1-ylmethyl Chemical name: (R)-(3-((4-(2- (dicyanomethylene)hydrazino)phenyl)- 4-methyl-6-oxo-5,6-dihydropyridazin- 1(4H)-yl)methyl 2-pyrrolidin-1-yl- acetate (TCX-1001-03 9) This product is slightly soluble in water | 
13 | C[C@@H]1CC(=O)N(COC(=O)COP(=O)(O)O)N=C1c1ccc(NN=C(C#N)C#N)cc1 [TCX-1001-040, (R)-(3-((4-(2-(dicyanomethylene)hydrazino)phenyl)-4-methyl-6-oxo-5,6-dihydropyridazin-1(4H)-yl)methyl phosphoryloxyacetate] | [drawing 15] Rp = phosphoryloxymethyl Chemical name: (R)-(3-((4-(2- (dicyanomethylene)hydrazino)phenyl)- 4-methyl-6-oxo-5,6-dihydropyridazin- 1(4H)-yl)methyl phosphoryloxyacetate (TCX-1001-040) This product is extremely soluble in water | 
14 | C[C@@H]1CC(=O)N(COC(=O)CC(=O)O)N=C1c1ccc(NN=C(C#N)C#N)cc1 [TCX-1001-041, (R)-(3-((4-(2-(dicyanomethylene)hydrazino)phenyl)-4-methyl-6-oxo-5,6-dihydropyridazin-1(4H)-yl)methyl 2-carboxyl acetate] | [drawing 12] Rp = carboxylmethyl Chemical name: (R)-(3-((4-(2- (dicyanomethylene)hydrazino)phenyl)- 4-methyl-6-oxo-5,6-dihydropyridazin- 1(4H)-yl)methyl 2-carboxylacetate (TCX-1001-041) This product is slightly soluble in water | 
